Measurements as given in patent US20210069295A1, “GALECTINS CONTROL MTOR IN RESPONSE TO ENDOMEMBRANE DAMAGE AND PROVIDE A MECHANISM AND TARGET FOR THE TREATMENT OF AUTOPHAGY-RELATED DISEASES” (STC. UNM, priority 2017, published 2021).

How the values were obtained:
Gal8 and Gal9 = assay: Galectin puncta formation by high-content microscopy in HeLa cells; type: cell-based; conditions: HeLa cells overexpressing GFP-Gal8 or GFP-Gal9, 100 μM, 1 h full medium
Procedure: (A) Analysis of the puncta formation of galectins in response to GPN. HeLa cells overexpressing YFP-fused with the indicated galectins were treated with 100 μM GPN or without (Ctrl) in full medium for 1 h and galectin puncta were quantified by HC. […] White masks, algorithm defined cell boundaries (primary objects); green masks, computer-identified galectins puncta (target objects). Data, means±SEM, n≥3 independent experiments (500 primary objects counted per well; ≥5 wells/sample per each experiment); *p<0.05, **p<0.01, † p≥0.05, ANOVA. (B) Immunoprecipitation analysis of the interactions between galectins and mTOR or RagA GTPase. HEK293T cells overexpressing FLAG-tagged galectins were subjected to anti-FLAG immunoprecipitation followed by immunoblotting for endogenous mTOR or RagA. (C) Immunoprecipitation analysis of interactions between Gal8 and mTOR protein complexes in response to GPN treatment. […] Biotinylated proteins from HEK293T cell expressing APEX2-vector or APEX2-Gal8, after GPN and biotin phenol (BP) treatment were affinity-enriched by binding to streptavidin-beads, and samples were analyzed by immunoblotting analysis for endogenous RagA, p14, mTOR or Raptor. […]
(A) HC analysis of the puncta of galectins in response to chloroquine, Bafilomycin A1 and GPN. HeLa cells overexpressing GFP-Gal8 or GFP-Gal9 were treated with 100 μM chloroquine (CQ), […] (BAF) or 100 μM GPN in full medium for 1 h, and the puncta of GFP-Gal8 or GFP-Gal9 were quantified by HC. […] Data, means±SEM, n≥3 independent experiments (500 primary objects counted per well; ≥5 wells/sample per each experiment), † p≥0.05, **p<0.01, ANOVA. […] HeLa cells expressing GFP-Gal8 were treated with 100 μM GPN in full medium for 1 h, and the overlap between GFP-Gal8 and LAMP2 were quantified by HC. […] Data, means±SEM, n≥3 independent experiments (500 primary objects counted per well; ≥5 wells/sample per each experiment), **p<0.01, ANOVA. […]

AMPK = AMPK activation by immunoblotting of phosphorylated AMPKα, ACC and ULK1 in HEK293A cells; type: cell-based; conditions: Gal9 KO HEK293A, 1 μM oligomycin 1 h
AMPKα = assay: Co-IP of FLAG-tagged galectins with endogenous AMPKα in HEK293T cells; type: binding; conditions: HEK293T overexpressing FLAG-tagged galectins
TAK1 = target: T1, TAK1 (Homo sapiens, UniProt O43318); assay: Co-IP of FLAG-tagged galectins with GFP-tagged TAK1 in HEK293T cells; type: binding; conditions: HEK293T overexpressing FLAG-tagged galectins and GFP-TAK1
T1 sequence (O43318 1-606): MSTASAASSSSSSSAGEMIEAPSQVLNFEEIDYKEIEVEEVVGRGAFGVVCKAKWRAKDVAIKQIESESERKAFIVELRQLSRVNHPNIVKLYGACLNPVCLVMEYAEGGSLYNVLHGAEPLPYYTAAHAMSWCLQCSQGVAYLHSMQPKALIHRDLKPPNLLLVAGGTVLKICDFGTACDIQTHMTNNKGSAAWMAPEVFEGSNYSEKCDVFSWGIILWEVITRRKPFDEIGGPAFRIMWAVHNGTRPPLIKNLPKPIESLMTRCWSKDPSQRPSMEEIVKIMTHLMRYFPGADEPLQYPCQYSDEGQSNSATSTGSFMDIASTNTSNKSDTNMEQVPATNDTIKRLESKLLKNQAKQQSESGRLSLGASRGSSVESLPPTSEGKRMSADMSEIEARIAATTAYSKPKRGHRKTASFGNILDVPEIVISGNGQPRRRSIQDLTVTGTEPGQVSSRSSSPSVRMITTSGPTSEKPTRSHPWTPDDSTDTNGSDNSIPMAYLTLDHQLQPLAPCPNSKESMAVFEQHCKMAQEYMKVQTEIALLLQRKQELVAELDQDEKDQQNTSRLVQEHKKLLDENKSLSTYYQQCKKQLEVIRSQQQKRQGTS
Procedure: (A) Analysis of the activation of AMPK in wildtype (WT) and the complementation of Gal9 in Gal9-knockout (Gal9KO) HEK293A cells treated with 100 μM GPN in full medium for 1 h. AMPK activity was monitored by immunoblotting analysis of AMPKα (T172) and acetyl-CoA carboxylase (ACC, S79) phosphorylation (phosphorylated AMPKα (T172) and ACC (S79) relative to total AMPKα and ACC respectively). (B) HEK293T cells transfected with scrambled siRNA (Scr) or Gal9 siRNA (Gal9KD) were treated with 2 mM LLOMe in full medium for 1 h, and the cell lysates were analyzed for phosphorylation of indicated proteins. Data, means±SEM, n=3, *p<0.05, ANOVA. (C) HEK293T cells overexpressing FLAG-Gal9 were treated with 2 mM LLOMe in full medium for 1 h. Cell lysates were analyzed for the indicated proteins. Data, means±SEM, n=3, *p<0.05, ANOVA. (D) Immunoprecipitation analysis of the interactions between galectins and TAK1. HEK293T cells overexpressing FLAG-tagged galectins and GFP-tagged TAK1 were subjected to anti-FLAG immunoprecipitation followed by immunoblotting for GFP-tagged TAK1. (E) Schematic diagram of Gal9 domains and deletion constructs. (F) HEK293T cells overexpressing FLAG-tagged full-length or truncated Gal9 and GFPAMPK were subjected to anti-FLAG immunoprecipitation, followed by immunoblotting for GFP-AMPK. (G) HEK293T cells overexpressing FLAG-tagged full-length or truncated Gal9 and GFP-TAK1 were subjected to anti-FLAG immunoprecipitation, followed by immunoblotting for GFP-TAK1. (H) Analysis of the activation of AMPK in HEK293T cells subjected to knockdowns as indicated treated with 100 μM GPN in full medium for 1 h. AMPK activity was monitored by immunoblotting analysis of AMPKα (T172) and acetyl-CoA carboxylase (ACC, S79) phosphorylation (phosphorylated AMPKα (T172) and ACC (S79) relative to total AMPKα and ACC respectively). Cells transfected with scrambled siRNA were as control (Scr). […]

mTOR, Raptor, RagA, p14 = assay: APEX2 proximity biotinylation with streptavidin enrichment and immunoblotting in HEK293T cells; type: cell-based; conditions: APEX2-galectin fusions
Procedure: (A) Analysis of the puncta formation of galectins in response to GPN. HeLa cells overexpressing YFP-fused with the indicated galectins were treated with 100 μM GPN or without (Ctrl) in full medium for 1 h and galectin puncta were quantified by HC. […] White masks, algorithm defined cell boundaries (primary objects); green masks, computer-identified galectins puncta (target objects). Data, means±SEM, n≥3 independent experiments (500 primary objects counted per well; ≥5 wells/sample per each experiment); *p<0.05, **p<0.01, † p≥0.05, ANOVA. (B) Immunoprecipitation analysis of the interactions between galectins and mTOR or RagA GTPase. HEK293T cells overexpressing FLAG-tagged galectins were subjected to anti-FLAG immunoprecipitation followed by immunoblotting for endogenous mTOR or RagA. (C) Immunoprecipitation analysis of interactions between Gal8 and mTOR protein complexes in response to GPN treatment. THP-1 cells not treated or treated with 100 μM GPN in full medium for 1 h were subjected to immunoprecipitation with anti-Gal8 antibody, followed by immunoblotting for endogenous RagA, p14, mTOR or Raptor. (D) Analysis of the proximity of Gal8 to mTOR and other proteins in mTOR complexes in response to GPN. Biotinylated proteins from HEK293T cell expressing APEX2-vector or APEX2-Gal8, after GPN and biotin phenol (BP) treatment were affinity-enriched by binding to streptavidin-beads, and samples were analyzed by immunoblotting analysis for endogenous RagA, p14, mTOR or Raptor. Data, means±SEM, (n=3), **p<0.01, ANOVA. (E) Immunoprecipitation analysis of the interactions between Gal8 and RagA GTPase and its mutants. Lysates of HEK293T cells overexpressing FLAG-Gal8 and HA-tagged RagA proteins (RagAWT, RagAT21L or RagAQ66L) were subjected to anti-FLAG immunoprecipitation, followed by immunoblotting for HA-tagged RagA proteins. (F) Immunoprecipitation analysis of the interactions between Gal8 and RagC GTPase and its mutants. HEK293T cells overexpressing FLAG-Gal8 and HA-tagged RagC proteins (RagCWT, RagCS75L or RagCQ120L) lysates were subjected to anti-FLAG immunoprecipitation, followed by immunoblotting for HA-tagged RagC proteins.
HEK293T cells transfected with pJJiaDEST-APEX2 or pJJiaDEST-APEX2-Gal8 were incubated with 100 μM GPN (Cayman Chemicals) in full medium for 1 h (confluence of cells remained at 70-80%). Cells were next incubated in 500 μM biotin-phenol (AdipoGen) in full medium for the last 30 min of GPN incubation. A 1 min pulse with 1 mM H2O2 at room temperature was stopped with quenching buffer (10 mM sodium ascorbate, 10 mM sodium azide and 5 mM Trolox in Dulbecco's Phosphate Buffered Saline (DPBS)). All samples were washed twice with quenching buffer, and twice with DPBS.
For immunoblotting analysis, cell pellets were lysed with 500 μL ice-cold RIPA lysis buffer (ThermoFisher Scientific) with protease inhibitor cocktail (Roche), 1 mM PMSF (sigma), 10 mM sodium ascorbate, 10 mM sodium azide and 5 mM Trolox, gently pipetted and then the incubated for 30 min. The lysates were clarified by centrifugation at 13,000 rpm for 5 min, followed by measuring protein concentrations using a Pierce BCA Protein Assay kit, with freshly made bovine serum albumin (BSA) solutions as standards. Streptavidin-coated magnetic beads (ThermoFisher Scientific) were washed with RIPA lysis buffer. 3 mg of each sample was mixed with 100 μL of streptavidin beads. […] 15 μL of each sample was separated by SDS-PAGE and analyzed by Western blot using indicated antibodies.

For CO/C1=C\C(C)=C\[C@@H](C)[C@@H](O)[C@@H](C)C/C(C)=C/C=C/[C@H](OC)[C@@H]([C@@H](C)[C@@H](O)[C@H](C)[C@@]2(O)C[C@@H](O)[C@H](C)[C@@H](C(C)C)O2)OC1=O [Bafilomycin A 1, Bafilomycin A1], which “Gal8 and Gal9 puncta formation” value (Gal8 and Gal9) is on record?
The value was “not upon treatment”.

With CCN(CC)CCCC(C)Nc1ccnc2cc(Cl)ccc12 (stereo not drawn) [chloroquine] as the molecule, how does the “Gal8 and Gal9 puncta formation” value (Gal8 and Gal9) read?
Its value is “not upon treatment”.

CC[C@H]1/C=C/C=C/C[C@@H](C)[C@H](O)[C@@](C)(O)C(=O)[C@@H](C)[C@H](O)[C@@H](C)C(=O)[C@@H](C)[C@H](O)[C@@H](C)/C=C/C(=O)O[C@@H]2[C@H](C)[C@H](CC1)O[C@]1(CC[C@H](C)[C@H](C[C@@H](C)O)O1)[C@H]2C [oligomycin] was tested. Which “AMPK phosphorylation in Gal9 KO cells” value (AMPK) did it give?
Its value is “increased AMPK phosphorylation”.

With “Gal3: cytosolic lectin, galectin-3, used as comparator” as the molecule, how does the “AMPKα in complexes (co-IP) with galectin” value (AMPKα) read?
The value was “not detected”.

What about the “interaction with TAK1” value (TAK1) of the same molecule?
The value was “not”.

What about the “mTOR, Raptor and RagA found in the proximity of the galectin” value (mTOR, Raptor, RagA, p14) of the same molecule?
The value was “not in the proximity”.
